Test results: ChEMBL document CHEMBL5634188, “Expanding TPD Horizons: Innovative Strategies Targeting BCL6 and SMARCA2” (ACS Med Chem Lett, 2024)

Assays:
Assay type in all cases: cell-based
[1] = target: T1, Protein cereblon/SWI/SNF-related matrix-associated actin-dependent regulator of chromatin subfamily A member 2 (Homo sapiens, UniProt P51531+Q96SW2); assay: PROTAC activity at CRBN/N-terminal HiBiT-tagged SMARCA2 in human A549 cells assessed as induction of SMARCA2 degradation incubated for 6 hrs by Nano-Glo HiBiT Lytic reagent based luminescence plate reader analysis
[2] = target: Protein cereblon/B-cell lymphoma 6 protein (Homo sapiens) (UniProt Q96SW2+P41182); assay: PROTAC activity at CRBN/N-terminal HiBiT tagged BCL6 in human HT-1080 cells assessed as induction of BCL6 degradation by measuring minimum efficacy incubated for 5 hrs by NANO-GLO HiBiT Lytic reagent based luminescence plate reader analysis
[3] = target: Protein cereblon/B-cell lymphoma 6 protein (Homo sapiens, UniProt P41182+Q96SW2); assay: PROTAC activity at CRBN/N-terminal HiBiT tagged BCL6 in human HT-1080 cells assessed as induction of BCL6 degradation incubated for 5 hrs by NANO-GLO HiBiT Lytic reagent based luminescence plate reader analysis
[4] = target: T1, Protein cereblon/SWI/SNF-related matrix-associated actin-dependent regulator of chromatin subfamily A member 2; assay: PROTAC activity at CRBN/N-terminal HiBiT-tagged SMARCA2 in human A549 cells assessed as induction of SMARCA2 degradation by measuring maximal efficacy incubated for 6 hrs by Nano-Glo HiBiT Lytic reagent based luminescence plate reader analysis relative to control

T1 sequence (P51531 whole entry): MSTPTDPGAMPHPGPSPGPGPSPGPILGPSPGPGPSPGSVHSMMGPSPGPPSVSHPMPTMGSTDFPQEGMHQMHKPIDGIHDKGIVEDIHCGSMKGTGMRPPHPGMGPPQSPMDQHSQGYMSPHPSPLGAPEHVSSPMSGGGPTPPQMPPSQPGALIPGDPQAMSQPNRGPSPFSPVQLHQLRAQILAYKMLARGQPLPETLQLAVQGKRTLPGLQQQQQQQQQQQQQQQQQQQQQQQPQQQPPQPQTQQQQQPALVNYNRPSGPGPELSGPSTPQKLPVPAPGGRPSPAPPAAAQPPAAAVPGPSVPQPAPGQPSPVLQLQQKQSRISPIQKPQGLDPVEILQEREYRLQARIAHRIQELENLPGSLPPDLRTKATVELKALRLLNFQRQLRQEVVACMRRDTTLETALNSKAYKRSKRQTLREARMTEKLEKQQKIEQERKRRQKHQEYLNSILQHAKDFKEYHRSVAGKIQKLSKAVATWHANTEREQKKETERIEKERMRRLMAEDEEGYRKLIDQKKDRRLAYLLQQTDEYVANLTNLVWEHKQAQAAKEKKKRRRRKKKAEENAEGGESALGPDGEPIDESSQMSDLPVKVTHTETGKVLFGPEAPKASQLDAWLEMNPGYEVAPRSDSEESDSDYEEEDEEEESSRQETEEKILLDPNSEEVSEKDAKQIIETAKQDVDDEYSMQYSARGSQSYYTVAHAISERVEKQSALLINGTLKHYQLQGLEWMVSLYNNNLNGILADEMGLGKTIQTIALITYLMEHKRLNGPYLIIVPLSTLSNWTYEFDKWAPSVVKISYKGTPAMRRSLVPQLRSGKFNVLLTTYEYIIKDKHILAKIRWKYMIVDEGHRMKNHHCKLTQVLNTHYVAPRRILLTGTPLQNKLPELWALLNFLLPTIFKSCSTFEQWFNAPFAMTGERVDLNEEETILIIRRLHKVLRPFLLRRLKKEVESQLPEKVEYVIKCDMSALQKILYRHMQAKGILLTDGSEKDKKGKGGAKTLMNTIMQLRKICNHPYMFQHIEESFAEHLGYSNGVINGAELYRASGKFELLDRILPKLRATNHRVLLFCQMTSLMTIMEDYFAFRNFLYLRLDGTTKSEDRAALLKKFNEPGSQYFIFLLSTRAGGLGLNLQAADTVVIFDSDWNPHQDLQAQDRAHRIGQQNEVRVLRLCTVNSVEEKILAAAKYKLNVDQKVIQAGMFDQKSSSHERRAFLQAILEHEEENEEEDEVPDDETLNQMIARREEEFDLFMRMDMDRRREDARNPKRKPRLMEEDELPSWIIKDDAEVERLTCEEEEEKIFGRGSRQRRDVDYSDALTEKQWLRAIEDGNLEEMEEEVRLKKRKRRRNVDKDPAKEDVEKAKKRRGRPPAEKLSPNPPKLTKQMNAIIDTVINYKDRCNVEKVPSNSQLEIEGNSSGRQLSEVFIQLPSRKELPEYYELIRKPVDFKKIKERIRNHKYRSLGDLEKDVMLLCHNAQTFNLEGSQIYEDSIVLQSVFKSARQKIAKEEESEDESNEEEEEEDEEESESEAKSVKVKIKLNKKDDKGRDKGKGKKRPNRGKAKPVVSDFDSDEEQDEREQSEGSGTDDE
T1 sequence (Q96SW2 whole entry): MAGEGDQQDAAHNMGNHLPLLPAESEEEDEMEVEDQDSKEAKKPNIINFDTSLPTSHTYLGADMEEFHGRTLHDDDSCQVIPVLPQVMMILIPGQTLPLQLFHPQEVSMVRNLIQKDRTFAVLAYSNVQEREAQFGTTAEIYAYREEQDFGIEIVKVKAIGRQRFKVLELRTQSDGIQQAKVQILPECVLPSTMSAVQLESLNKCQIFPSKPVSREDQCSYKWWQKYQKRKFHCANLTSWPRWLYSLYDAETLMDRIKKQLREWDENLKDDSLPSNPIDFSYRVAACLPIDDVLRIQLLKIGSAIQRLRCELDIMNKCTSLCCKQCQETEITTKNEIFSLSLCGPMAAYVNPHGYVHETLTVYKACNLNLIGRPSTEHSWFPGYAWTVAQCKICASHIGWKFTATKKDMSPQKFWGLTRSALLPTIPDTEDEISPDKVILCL
Chain of Protein cereblon/B-cell lymphoma 6 protein (Homo sapiens) (Q96SW2 whole entry, looked up, other chains not shown): as the sequence (Q96SW2 whole entry) above
Chain of Protein cereblon/B-cell lymphoma 6 protein (Q96SW2 whole entry, looked up, other chains not shown): as the sequence (Q96SW2 whole entry) above

DC50 [1] [nM] | Emin [2] [%] | also measured | Structure (SMILES)
9.47 | – | – | CN(C(=O)N1CCC(Oc2cccc(N3[C@@H]4COC[C@H]3CC(c3cc(-c5ccccc5O)nnc3N)C4)c2)CC1)C1CCN(c2cccc3c2CCN3[C@@H]2CCC(=O)NC2=O)CC1 (stereo not given in full)
– | < 30 | EC50 [3]: ≤ 25 nM | C[C@H](C1CCN(c2ncc(Cl)c(Nc3ccc4c(c3)c3c(c(=O)n4C)OCC(F)(F)[C@H](C4CC4)N3)n2)CC1)C1CCN(c2cccc3c(C4CCC(=O)NC4=O)nn(C)c23)CC1 (stereo not given in full)
– | < 30 | – | Cn1nc(C2CCC(=O)NC2=O)c2cccc(N3CCN(CC4CCN(c5ncc(Cl)c(Nc6ccc7c(c6)c6c(c(=O)n7C)OCC(F)(F)[C@H](C7CC7)N6)n5)CC4)CC3)c21 (stereo not given in full)
5.8 | – | Emax [4]: 22.9% | Nc1nnc(-c2ccccc2O)cc1C1C[C@H]2COC[C@@H](C1)N2c1cccc(OC2CCN(C(=O)CC3(O)CCN(c4cccc5c4CCN5C4CCC(=O)NC4=O)CC3)CC2)c1 (stereo not given in full)
– | < 30 | – | Cn1c(=O)c2c(c3cc(Nc4nc(N5CCN(CC6CCN(c7cccc8c7C(=O)N(C7CCC(=O)NC7=O)C8=O)CC6)CC5)ncc4Cl)ccc31)N[C@@H](C1CC1)C(F)(F)CO2 (stereo not given in full)
– | < 30 | – | C[C@H]1CN(c2ncc(Cl)c(Nc3ccc4c(c3)c3c(c(=O)n4C)OCC(F)(F)[C@H](C4CC4)N3)n2)CCN1CC1CCN(c2cccc3c(C4CCC(=O)NC4=O)nn(C)c23)CC1 (stereo not given in full)
13 | – | – | Nc1nnc(-c2ccccc2O)cc1C1C[C@H]2COC[C@@H](C1)N2c1cccc(OC2CCN(C(=O)CCC3CN(c4cccc5c4CCN5[C@@H]4CCC(=O)NC4=O)C3)CC2)c1 (stereo not given in full)
13.1 | – | – | CN(c1cccc(N2CCC(O)(CC(=O)N3CCC(Oc4cccc(N5[C@@H]6COC[C@H]5CC(c5cc(-c7ccccc7O)nnc5N)C6)c4)CC3)CC2)c1)C1CCC(=O)NC1=O (stereo not given in full)
